The subject of data set [1] is Hepa1-6 cell line. In words: Cellular ATP content (CellTiter-Glo Assay). The class given is cell-based. The settings on record: Hepa1-6, exposure 24 h, FIG. 1a. As to the method: (§1) The tested compounds were dissolved in DMSO at a concentration of 100 mM and further diluted in PBS supplemented with 10% (v/v) DMSO. When necessary dissolution was enhanced by incubation at 50° C. and sonication at maximum output for 10 min. Hepa1.6 cell line (#CRL-1830, ATCC) was cultured in DMEM culture medium containing 1 g L^−1 glucose, 10% fetal bovine serum, 2 mM glutamine, 100 U mL^−1 Penicillin and 100 μg mL^−1 Streptomycin and 30 μM oleic acid. Cells were seeded at a density of 20000 cells per well in 96 well plates and incubated for several hours to allow the cells to attach at 37° C. with 5% CO2. Cells were then supplemented with the test substances at indicated concentrations (0.01-50 μM) and incubated for indicated time periods (24-48 h).
For all assays the tested substances were further diluted in 10% DMSO/PBS and added to the cells at the indicated concentrations with a final DMSO concentration of 0.01%. […]
Cells were treated for 24 h with the test substances at the indicated concentrations. The cellular ATP content was assessed using the CellTiter-Glo Assay (#G7571, Promega) as per the manufacturer's instructions. Luminescence was detected in a plate reader spectrophotometer. The results were normalized to the luminescence intensity measured in mock treated negative controls and the positive controls treated with 10 μM oligomycin.
On the technique in general: ATP-based viability assays read luminescence as a measure of living cells.

For data set [2], the system named is Hepa1-6 cell line. The data set can be described thus: Mitochondrial membrane potential (ΔΨm), TMRE fluorophore. The class given is cell-based. The settings on record: FIG. 1b; for reduce ΔΨm: Hepa1-6, exposure 24 h; for Emax at 1 µM: Mus musculus, Hepa1-6, concentration of 1 μM, read-out: decrease of normalized ΔΨm, maximum response. As to the method:
as §1
(§2) For all assays the tested substances were further diluted in 10% DMSO/PBS and added to the cells at the indicated concentrations with a final DMSO concentration of 0.01%. Negative vehicle controls were treated with 0.01% DMSO. Positive control was treated with 10 μM oligomycin or 10 μM FCCP (Carbonyl cyanide-4-(trifluoromethoxy) phenylhydrazone).
Mitochondrial membrane potential (ΔΨm) was assessed using the tetramethylrhodamine (TMRE) fluorophore. The cells were incubated with the test substances for 24 h and then loaded with TMRE at a final concentration of 200 nM for 45 min at 37° C. Positive control wells were treated with 10 μM FCCP 30 min before loading the cells with TMRE. The medium was removed and the cells were washed with PBS and supplemented with fresh culture medium. Fluorescence intensity of TRME was immediately measured (ex/em: 545/580 nm) using a plate reader spectrophotometer. The results were normalized to the fluorescence intensity measured in mock treated negative controls and the positive controls treated with 10 μM FCCP.

The subject of data set [3] is Hepa1-6 cell line. The data set can be described thus: Cellular redox potential (AlamarBlue). The class given is cell-based. The conditions noted are these: Hepa1-6, 24 h, FIG. 1c. As to the method: as §1, §2
Cells were treated for 24 h with the test substances or controls ([…] DMSO, 10 μM FCCP and 10 μM oligomycin). […] Fluorescence was measured at ex/em: 550/590 nm. […]

The subject of data set [4] is Hepa1-6 cell line. In words: BrdU incorporation/cell proliferation assay. The class given is cell-based. The settings on record: for suppression of cells proliferation: Hepa1-6, exposure 48 h, FIG. 1d. As to the method:
as §1, §2
Cells were incubated for a total of 48 h with the tested substances. During the last 12 h the cells were supplemented with 200 μM BrdU (#ab126556, Abcam). After the incubation period cells were washed with PBS. Following that the cells fixed and permeabilized using the reagents of the kit and labeled for 1 h with anti-BrdU antibodies conjugated with peroxidase. After washing the fixed cells 5 times with PBS the wells were incubated with peroxidase substrate TMB. The reaction was stopped after 30 min. The signal intensity was measure at absorbance 450 nm. Results were normalized to controls samples treated with vehicle (0.01% DMSO, negative control) or 10 μM oligomycin.
Background: Uptake of a labelled nucleoside into DNA is a usual measure of proliferation.

In data set [5] the test system is Hepa1-6 cell line. In words: Cytotoxicity (Pierce LDH Cytotoxicity Assay Kit). The class given is cell-based. The settings on record: Hepa1-6, FIG. 1e. As to the method: as §1, §2
Cytotoxicity was assessed using the Pierce LDH Cytotoxicity Assay Kit (#88953, Thermo Fisher). […] Absorbance was measure at 490 nm and background at 680 nm. […] Cytotoxicity was expressed as the percentage of maximum signal intensity observed in freshly lysed cells.

Another data set relates to CD3+ T lymphocytes. The data set can be described thus: Activation induced proliferation of lymphocytes (PMA/Ionomycin), Cytopainter flow cytometry, T cells. The class given is cell-based, C57BL/6J mice. The conditions noted are these: stimulation with PMA/Ionomycin; for division index of T-cells: FIG. 2a; for expansion index of T-cells: FIG. 2b. As to the method:
(§3) Spleen and lymph nodes were collected from C57BL/6J mice and stored in RPMI medium on ice until further processing. Further procedures were performed using a laminar flow hood. Single cell suspensions were created by shearing the organs between two microscopy slides. Cell suspensions were passed through a 70 μm cell strainer to exclude remaining tissue chunks. Cells were washed in PBS and centrifuged at 300 g for 5 min at 4° C. During the preparation of splenic single cell suspension, erythrocytes were removed by incubating the cells for 5 min at rt in RBC lysis buffer followed by extensive washing in PBS. Cells were resuspended in RPMI medium and cell count was determined. Lymphocytes were kept on ice until further use.
(§4) A total 17×10^6 cells were suspended in 15 mL Krebs Ringer buffer (with HEPES, 1 g L^−1 glucose, 1 mM pyruvate), supplemented with 30 μL of Cytopainter blue stock solution (500×) (#ab176726, Abcam) and incubated for 30 min at 37° C. to let the CFSE analog accumulate in the cells. The remaining Cytopainter reagent that was not incorporated into the cells was quenched by addition of 10 mL FCS and incubated for 5 min at rt. Another 25 mL of PBS were added and cells were centrifuged at 300 g for 5 min at rt. The cells were then suspended in 12.75 mL of complete RPMI culture medium. 2×10^5 cells in a volume of 150 μL were added to the wells of 96 well plates. The cytopainter-loaded cells were supplemented with the test substances, or DMSO as a negative control and oligomycin as a positive control.
(§5) Cytopainter loaded lymphocytes were stimulated with PMA (15 ng mL^−1) and Ionomycin (0.5 μg mL^−1). All cells were incubated for 60 h at 37° C., 5% CO2. Lymphocytes were then washed with 2% FBS in PBS, supplemented with anti-CD16/CD32 antibodies (to block unspecific Fc-receptor binding) and incubated for 10 min at 4° C. Subsequently cells were incubated for 20 min at 4° C. with anti-CD3 antibodies conjugated to FITC (clone: 145-2C11, #11-0031-82, eBioscience) and anti-B220 antibodies conjugated to PerCP-Cy5.5 (clone:RA3-6B2, #45-0452-82, eBioscience) to label T cells and B cells, respectively. Cells were subsequently washed with 2% FBS in PBS analyzed.
(§6) Cell proliferation was then analyzed by assessing the fluorescence intensity of cytopainter in the cells by flow cytometry. Reduced intensity of cytopainter dye indicates cells that have undergone cell division. Data was analyzed using FlowJo v10.4.2. Proliferation parameters were derived using the FlowJo Proliferation Tool. The Expansion index determines the fold-expansion of the overall culture. The Division index expresses the average number of cell divisions that a cell in the original population has undergone and also includes the cells that have never divided.
(In general: A flow cytometer gives signals particle by particle.)

The next data set relates to B220+ B lymphocytes. In words: Activation induced proliferation of lymphocytes (PMA/Ionomycin), Cytopainter flow cytometry, B cells. The conditions noted are these: stimulation with PMA/Ionomycin; for division index of B-cells: FIG. 2c; for expansion index of B-cells: FIG. 2d. The class given is cell-based, C57BL/6J mice. As to the method: as §3, §4, §5, §6
The next data set has as its system isolated T cells. The data set can be described thus: Activation induced proliferation of isolated T cells, Cytopainter flow cytometry. The class given is cell-based, C57BL/6J mice. The conditions noted are these: 2f. As to the method: as §3
T cell was enriched from the splenocytes by negative selection using magnetic bead separation (Pan T cell isolation kit II, mouse, #130-095-130, Miltenyi) achieving more than 90% purity. The cells were kept in RPMI medium until further use.
as §4
Cytopainter loaded T cells were stimulated using two different approaches. Either T cells stimulated by plate bound anti-CD3 antibodies (coated at 1 μg/mL) and soluble anti-CD28 antibodies (at a final concentration of 0.2 μg mL^−1), or in separate replicates by addition of the cytokines IL-2 (50 ng mL^−1) and IL-7 (10 ng mL^−1) to stimulate T cells proliferation and survival.
as §6

[6] abbreviates: stimulation with anti-CD3/CD28 antibodies, FIGS. 2e.
The mark [7] stands for this setting: stimulation with cytokines IL-2/IL-7, FIGS. 2e.

Structures are written as SMILES. “Also recorded” adds a separate entry of the source.

Consider `C[C@]12CCC(=O)C[C@H]1N1CCc3c([nH]c4ccccc34)[C@@H]1CO2` [1q, (2aS,6aR,14bR)-2a-Methyl-3,4,6,6a,8,9,14,14b-octahydro-1H-benzo[5′,6′][1,4]oxazino[4′,3′:1,2]pyrido[3,4-k]indol-5(2aH)-one], for which the “deplete ATP production” value with Hepa1-6 cell line [1] is recorded as at most 50%. For the same molecule, in the data set with Hepa1-6 cell line [2], the “reduce ΔΨm” value was determined as 77% and the Emax at 1 µM amounted to 90%. The “effect on redox potential” value with Hepa1-6 cell line [3] was “increase; also recorded: strongly affected”. Moreover, the “suppression of cells proliferation” value with Hepa1-6 cell line [4] is given as “potent suppression”. The cytotoxic necrosis result in the data set with Hepa1-6 cell line [5] is recorded as “without noticeable cytotoxic necrosis”. Further, in the data set with CD3+ T lymphocytes, the “division index of T-cells” value was “non-significant effects” and the “expansion index of T-cells” value is “non-significant effects”. Moreover, in the data set on B220+ B lymphocytes, the “division index of B-cells” value is on record as “non-significant effects” and the “expansion index of B-cells” value was “non-significant effects”. Also, the “activation-induced proliferation of isolated T-cells” value (“activation-induced proliferation” below) in the data set on isolated T cells (setting [6]) was “did not significantly affect”. Moreover, the “activation-induced proliferation” value in the data set with isolated T cells (setting [7]) is listed as “did not significantly affect”.

`C[C@]12C=CC(=O)C[C@H]1N1CCc3c([nH]c4ccccc34)[C@@H]1CO2` [compound 1d, (2aS,6aR,14bR)-2a-Methyl-6,6a,8,9,14,14b-hexahydro-1H-benzo[5′,6′][1,4]oxazino[4′,3′:1,2]pyrido[3,4-b]indol-5(2 aH)-one]: the “deplete ATP production” value with Hepa1-6 cell line [1] is given as “up to 60%”. In the data set on Hepa1-6 cell line [2], the “reduce ΔΨm” value was 82% and the Emax at 1 µM was determined as 82%. Besides, the “effect on redox potential” value in the data set with Hepa1-6 cell line [3] is recorded as “increase; also recorded: strongly affected”. In addition, in the data set with Hepa1-6 cell line [4] (Hepa1-6, 1d versus 1q), the “rank in diminishing the proliferation of Hepa1-6” value is on record as “most potent”. In addition, the “suppression of cells proliferation” value with Hepa1-6 cell line [4] is recorded as “potent suppression”. Further, the cytotoxic necrosis entry with Hepa1-6 cell line [5] is on record as “without noticeable cytotoxic necrosis”. In addition, in the data set on CD3+ T lymphocytes, the “division index of T-cells” value was “non-significant effects” and the “expansion index of T-cells” value is on record as “non-significant effects”. Further, in the data set with B220+ B lymphocytes, the “division index of B-cells” value is recorded as “non-significant effects” and the “expansion index of B-cells” value was “non-significant effects”. The “activation-induced proliferation” value with isolated T cells (setting [6]) is “did not significantly affect”. Also, the “activation-induced proliferation” value in the data set on isolated T cells (setting [7]) is reported as “did not significantly affect”.

Values taken from patent publication US12269821B2, “Discovery of novel first in class nature-inspired compounds targeting the mitochondrial function and pharmaceutical composition thereof” (University of Sharjah, priority 2018, dated 2025).
